The source made the active and inactive calls.

One test deals with T1, Exodeoxyribonuclease V (Escherichia coli (strain K12), UniProt P04993+P07648+P08394).
T1 sequence (P04993 whole entry): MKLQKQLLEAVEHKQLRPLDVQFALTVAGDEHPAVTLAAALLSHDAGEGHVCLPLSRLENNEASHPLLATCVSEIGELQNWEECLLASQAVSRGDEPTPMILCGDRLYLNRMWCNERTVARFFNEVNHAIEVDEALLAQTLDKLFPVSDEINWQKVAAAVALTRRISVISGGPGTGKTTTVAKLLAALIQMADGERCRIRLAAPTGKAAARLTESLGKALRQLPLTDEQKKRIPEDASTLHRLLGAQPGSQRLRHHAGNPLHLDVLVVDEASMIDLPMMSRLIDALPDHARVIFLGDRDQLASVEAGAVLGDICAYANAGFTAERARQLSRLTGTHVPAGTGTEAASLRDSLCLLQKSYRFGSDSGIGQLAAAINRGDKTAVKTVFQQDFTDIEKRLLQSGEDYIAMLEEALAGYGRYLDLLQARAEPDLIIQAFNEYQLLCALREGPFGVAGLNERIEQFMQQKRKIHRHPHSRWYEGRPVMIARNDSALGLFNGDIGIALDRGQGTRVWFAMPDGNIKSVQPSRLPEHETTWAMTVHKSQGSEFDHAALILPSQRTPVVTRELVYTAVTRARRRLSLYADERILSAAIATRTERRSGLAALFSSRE
T1 sequence (P07648 whole entry): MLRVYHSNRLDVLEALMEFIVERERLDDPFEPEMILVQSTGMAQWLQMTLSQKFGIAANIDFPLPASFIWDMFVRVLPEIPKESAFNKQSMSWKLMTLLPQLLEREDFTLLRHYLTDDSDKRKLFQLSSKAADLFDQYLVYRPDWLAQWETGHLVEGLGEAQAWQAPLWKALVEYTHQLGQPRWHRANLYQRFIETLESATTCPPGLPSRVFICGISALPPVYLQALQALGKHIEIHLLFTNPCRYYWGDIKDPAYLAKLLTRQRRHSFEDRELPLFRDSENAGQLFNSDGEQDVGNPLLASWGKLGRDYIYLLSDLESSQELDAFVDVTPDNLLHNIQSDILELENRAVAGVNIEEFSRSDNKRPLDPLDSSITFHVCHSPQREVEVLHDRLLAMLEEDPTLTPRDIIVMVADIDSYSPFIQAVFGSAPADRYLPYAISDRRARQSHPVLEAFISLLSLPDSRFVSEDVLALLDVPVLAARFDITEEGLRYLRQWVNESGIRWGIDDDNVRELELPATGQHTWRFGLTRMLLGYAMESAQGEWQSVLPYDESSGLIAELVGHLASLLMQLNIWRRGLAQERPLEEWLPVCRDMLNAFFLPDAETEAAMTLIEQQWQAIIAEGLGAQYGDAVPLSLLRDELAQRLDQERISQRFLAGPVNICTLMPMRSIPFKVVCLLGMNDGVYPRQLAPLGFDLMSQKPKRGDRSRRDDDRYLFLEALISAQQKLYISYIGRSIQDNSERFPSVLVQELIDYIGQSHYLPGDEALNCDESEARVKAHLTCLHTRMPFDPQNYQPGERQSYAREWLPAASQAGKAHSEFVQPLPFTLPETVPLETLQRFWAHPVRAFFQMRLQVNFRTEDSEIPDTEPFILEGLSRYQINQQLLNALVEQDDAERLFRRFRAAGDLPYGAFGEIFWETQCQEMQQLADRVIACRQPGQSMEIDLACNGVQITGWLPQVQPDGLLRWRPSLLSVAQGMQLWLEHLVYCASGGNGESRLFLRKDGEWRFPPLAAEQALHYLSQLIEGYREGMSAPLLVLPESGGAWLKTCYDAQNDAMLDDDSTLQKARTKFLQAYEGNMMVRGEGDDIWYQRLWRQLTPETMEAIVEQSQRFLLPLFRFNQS
T1 sequence (P08394 whole entry): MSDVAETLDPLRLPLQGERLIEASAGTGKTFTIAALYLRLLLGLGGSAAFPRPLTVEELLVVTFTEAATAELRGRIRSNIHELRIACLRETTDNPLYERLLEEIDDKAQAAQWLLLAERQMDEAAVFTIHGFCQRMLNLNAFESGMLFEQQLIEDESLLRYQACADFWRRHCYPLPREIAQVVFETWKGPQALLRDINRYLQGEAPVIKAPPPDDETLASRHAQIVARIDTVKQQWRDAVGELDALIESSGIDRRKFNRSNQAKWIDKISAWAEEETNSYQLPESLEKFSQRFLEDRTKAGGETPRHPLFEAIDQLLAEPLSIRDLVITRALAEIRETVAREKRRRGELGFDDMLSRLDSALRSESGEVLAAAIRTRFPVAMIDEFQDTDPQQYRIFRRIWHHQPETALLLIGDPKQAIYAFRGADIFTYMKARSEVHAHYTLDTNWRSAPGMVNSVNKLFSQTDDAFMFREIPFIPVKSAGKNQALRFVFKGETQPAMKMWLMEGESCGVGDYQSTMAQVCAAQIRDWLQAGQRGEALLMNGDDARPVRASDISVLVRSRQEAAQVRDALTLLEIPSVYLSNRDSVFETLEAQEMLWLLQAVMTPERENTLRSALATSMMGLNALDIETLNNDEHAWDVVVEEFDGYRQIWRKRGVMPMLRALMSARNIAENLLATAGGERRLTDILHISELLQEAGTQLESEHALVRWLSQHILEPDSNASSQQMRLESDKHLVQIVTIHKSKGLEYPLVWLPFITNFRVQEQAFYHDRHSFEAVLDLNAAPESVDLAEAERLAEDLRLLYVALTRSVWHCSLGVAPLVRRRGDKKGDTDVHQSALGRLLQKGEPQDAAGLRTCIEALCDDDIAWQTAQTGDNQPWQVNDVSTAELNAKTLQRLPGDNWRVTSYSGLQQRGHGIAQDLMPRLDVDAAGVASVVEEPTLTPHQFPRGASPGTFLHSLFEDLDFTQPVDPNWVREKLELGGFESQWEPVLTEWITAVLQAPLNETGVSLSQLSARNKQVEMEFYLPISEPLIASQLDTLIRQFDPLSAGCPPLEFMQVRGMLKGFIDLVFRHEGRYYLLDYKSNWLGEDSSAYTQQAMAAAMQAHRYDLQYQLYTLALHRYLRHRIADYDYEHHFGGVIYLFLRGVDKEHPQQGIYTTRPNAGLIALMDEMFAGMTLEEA
The test can be described thus: RecBCD inhibition via phage-restricted bacterial growth – absorbance, V66 E. coli, mutant T4 phage, counter-screen for AddAB inhibitor project, dose response (AID 492957). Type of test: functional, cell-based, Escherichia coli str. K-12 substr. MG1655. A general note: The purpose of a counterscreen is to sort out artefacts and off-target activity.

Test [1] can be described thus: Trypanosoma cruzi growth suppression in host cells – NIH3T3 host cells, beta-gal luminescence, confirmation (AID 2044).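 Further: intracellular parasites grown in NIH/3T3 mouse fibroblasts as host cells; luminescent beta-galactosidase reporter signal from transgenic T. cruzi replicating inside host cells; inhibitors lower the luminescence signal.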 Type of test: functional, cell-based.
The nature of test [2]: microbe, parasite or virus in culture. As to conditions: Mycobacterium tuberculosis. It is filed as functional.
In the next test the test system is HEK293. The test can be described thus: membrane integrity loss in HEK cells – cell-based, fluorescence, cytotoxicity control for IDE activator project, dose response (AID 588440).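 Further: cytotoxicity by LDH release measuring loss of membrane integrity.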 The following applies: Homo sapiens. Type of test: functional.

Turning to `CC(C)CC(=O)NC(c1cccs1)c1ccc2cccnc2c1O` (centres undefined), on Exodeoxyribonuclease V, the IC50 is > 119 µM (inactive). Further, in test [1], the EC50 was 0.489 µM (active).

Consider `CCOC(=O)c1ccc(NC2=CC(=O)C(=O)c3ccccc32)cc1`, for which the CC50 in test [2] is 21.1 µM (active). Turning to `OC(CNCCC1C=Nc2ccccc21)Cn1c2ccc(Cl)cc2c2cc(Cl)ccc21` (centres undefined), the IC50 in the test on HEK293 was 10.2 µM (inactive).

As usually defined, the IC50 is the concentration that inhibits the measured activity by half. As usually defined, the EC50 is the concentration needed to bring the measured effect to its halfway point.

(Values after ChEMBL document CHEMBL1201862, “PubChem BioAssay data set” (2004).)
